The values that follow come from ChEMBL document CHEMBL3044826, “Design, synthesis and biological evaluation of some novel substituted 2-mercapto-3-phenethylquinazolines as antitumor agents” (2013).

Activity calls are given as the source filed them. The rule behind the calls is not given here.

In one assay the test system is CCRF-CEM. The assay is described as follows: Cytotoxicity against Homo sapiens (human) CCRF-CEM cells assessed as growth inhibition at 10 uM after 48 hr by coulter counter analysis. Particulars: read-out: GI. Type of assay: functional.
The test system of another assay is T47D. Kind of assay: Cytotoxicity against Homo sapiens (human) T47D cells assessed as growth inhibition at 10 uM after 48 hr by coulter counter analysis. Type of assay: functional. Particulars: read-out: GI.
A further assay deals with 786-0. Kind of assay: Cytotoxicity against Homo sapiens (human) 786-0 cells assessed as growth inhibition at 10 uM after 48 hr by coulter counter analysis. Particulars: 786-0, 48 h, read-out: GI. Type of assay: functional.
In another assay the test system is Malme-3M. Kind of assay: Cytotoxicity against Homo sapiens (human) MALME-3M cells assessed as growth inhibition at 10 uM after 48 hr by coulter counter analysis. Type of assay: functional. Particulars: read-out: GI.
The subject of assay [1] is NCI-H522. Kind of assay: Cytotoxicity against Homo sapiens (human) NCI-H522 cells assessed as growth inhibition at 10 uM after 48 hr by coulter counter analysis. Particulars: NCI-H522, 48 h, read-out: GI. Type of assay: functional.
A further assay relates to Hs-578T. Kind of assay: Cytotoxicity against Homo sapiens (human) Hs578T cells assessed as growth inhibition at 10 uM after 48 hr by coulter counter analysis. Type of assay: functional. Particulars: read-out: GI.
A further assay deals with HCT-116. The assay is described as follows: Cytotoxicity against Homo sapiens (human) HCT116 cells assessed as growth inhibition at 10 uM after 48 hr by coulter counter analysis. Type of assay: functional. Particulars: HCT-116, 48 h, read-out: GI.
The subject of a further assay is NCI-H226. The assay is described as follows: Cytotoxicity against Homo sapiens (human) NCI-H226 cells assessed as growth inhibition at 10 uM after 48 hr by coulter counter analysis. Type of assay: functional. The following applies: NCI-H226, 48 h, read-out: GI.
In another assay the test system is MDA-MB-231. The assay is described as follows: Cytotoxicity against Homo sapiens (human) MDA-MB-231 cells assessed as growth inhibition at 10 uM after 48 hr by coulter counter analysis. Type of assay: functional. The following applies: MDA-MB-231, 48 h, read-out: GI.
The subject of the next assay is NCI-H460. The assay is described as follows: Cytotoxicity against Homo sapiens (human) NCI-H460 cells assessed as growth inhibition at 10 uM after 48 hr by coulter counter analysis. Type of assay: functional. The following applies: NCI-H460, 48 h, read-out: GI.
The next assay concerns SNB-19. The assay is described as follows: Cytotoxicity against Homo sapiens (human) SNB19 cells assessed as growth inhibition at 10 uM after 48 hr by coulter counter analysis. Type of assay: functional. The following applies: SNB-19, 48 h, read-out: GI.
The subject of the next assay is SK-OV-3. The assay is described as follows: Cytotoxicity against Homo sapiens (human) SKOV3 cells assessed as growth inhibition at 10 uM after 48 hr by coulter counter analysis. The following applies: SK-OV-3, 48 h, read-out: GI. Type of assay: functional.
In a further assay the test system is IGROV-1. The assay is described as follows: Cytotoxicity against Homo sapiens (human) IGROV1 cells assessed as growth inhibition at 10 uM after 48 hr by coulter counter analysis. The following applies: IGROV-1, 48 h, read-out: GI. Type of assay: functional.
The next assay concerns BT-549. Kind of assay: Cytotoxicity against Homo sapiens (human) BT549 cells assessed as growth inhibition at 10 uM after 48 hr by coulter counter analysis. Type of assay: functional. Particulars: BT-549, 48 h, read-out: GI.
Another assay deals with HOP-62. Kind of assay: Cytotoxicity against Homo sapiens (human) HOP62 cells assessed as growth inhibition at 10 uM after 48 hr by coulter counter analysis. Type of assay: functional. Particulars: HOP-62, 48 h, read-out: GI.
The next assay concerns MDA-MB-435. Kind of assay: Cytotoxicity against Homo sapiens (human) MDA-MB-435 cells assessed as growth inhibition at 10 uM after 48 hr by coulter counter analysis. The following applies: MDA-MB-435, 48 h, read-out: GI. Type of assay: functional.
Another assay has as its system UACC-257. Kind of assay: Cytotoxicity against Homo sapiens (human) UACC257 cells assessed as growth inhibition at 10 uM after 48 hr by coulter counter analysis. Type of assay: functional. Particulars: UACC-257, 48 h, read-out: GI.
In a further assay the test system is SF-295. Kind of assay: Cytotoxicity against Homo sapiens (human) SF295 cells assessed as growth inhibition at 10 uM after 48 hr by coulter counter analysis. Type of assay: functional. Particulars: SF-295, 48 h, read-out: GI.
Another assay has as its system SW-620. The assay is described as follows: Cytotoxicity against Homo sapiens (human) SW620 cells assessed as growth inhibition at 10 uM after 48 hr by coulter counter analysis. Type of assay: functional. The following applies: SW-620, 48 h, read-out: GI.
A further assay deals with HL-60(TB). Kind of assay: Cytotoxicity against Homo sapiens (human) HL-60(TB) cells assessed as growth inhibition at 10 uM after 48 hr by coulter counter analysis. The following applies: HL-60, 48 h, read-out: GI. Type of assay: functional.
A further assay relates to MOLT-4. The assay is described as follows: Cytotoxicity against Homo sapiens (human) MOLT4 cells assessed as growth inhibition at 10 uM after 48 hr by coulter counter analysis. Type of assay: functional. Particulars: MOLT-4, 48 h, read-out: GI.
For assay [2], the system named is NCI-H522. The assay is described as follows: Cytotoxicity against Homo sapiens (human) NCI-H522 cells at 10 uM after 48 hr by coulter counter analysis. Type of assay: functional, cell-based.

`COc1ccc(-n2c(S)nnc2CSc2nc3ccccc3c(=O)n2CCc2ccccc2)cc1`: the inhibition of growth at 10 µM is 13% in the assay with CCRF-CEM; below 10% in the assay on T47D; below 10% in the assay with 786-0; below 10% in the assay on Malme-3M; below 10% with NCI-H522 [1]; below 10% with Hs-578T. The inhibition of growth at 10 µM with HCT-116 was below 10%; in the assay on NCI-H226 it was below 10%; in the assay with MDA-MB-231, 20%; with NCI-H460 it was below 10%; in the assay on SNB-19 it was below 10%; with SK-OV-3, below 10%. Further, the inhibition of growth at 10 µM was 16% in the assay with IGROV-1; below 10% with BT-549; below 10% with HOP-62; below 10% with MDA-MB-435; below 10% in the assay on UACC-257; 12% in the assay on SF-295. Moreover, in the assay with SW-620, the inhibition of growth at 10 µM was below 10%.
Turning to `O=c1c2ccccc2nc(SCc2nnc(S)n2-c2ccccc2)n1CCc1ccccc1`, the inhibition of growth at 10 µM in the assay with CCRF-CEM was 28%; in the assay on T47D, 38%; in the assay on 786-0, below 10%; in the assay with Malme-3M, below 10%; in the assay with NCI-H522 [1], below 10%; with Hs-578T it was below 10%. Further, the inhibition of growth at 10 µM in the assay with HCT-116 is below 10%; in the assay on NCI-H226 it was below 10%; with MDA-MB-231, 20%; in the assay on NCI-H460, below 10%; with SNB-19 it was below 10%; with SK-OV-3, below 10%. Also, the inhibition of growth at 10 µM was 16% in the assay on IGROV-1; below 10% in the assay on BT-549; 24% in the assay on HOP-62; below 10% with MDA-MB-435; 12% in the assay with SF-295; below 10% in the assay on SW-620.
Consider `O=c1c2ccccc2[nH]c(=S)n1CCc1ccccc1`, for which the inhibition of growth at 10 µM is 16% in the assay on CCRF-CEM; below 10% in the assay on T47D; below 10% with 786-0; 11% with HL-60(TB); below 10% with Malme-3M; below 10% in the assay on NCI-H522 [1]. The inhibition of growth at 10 µM in the assay with Hs-578T was below 10%; in the assay with HCT-116 it was 18%; with NCI-H226, below 10%; with MDA-MB-231 it was below 10%; in the assay on NCI-H460, below 10%; in the assay on SNB-19, below 10%. In addition, the inhibition of growth at 10 µM with SK-OV-3 was below 10%; in the assay with IGROV-1, below 10%; in the assay with BT-549 it was below 10%; in the assay on MOLT-4 it was 23%; with HOP-62, 26%; in the assay with MDA-MB-435, below 10%. Moreover, the inhibition of growth at 10 µM is below 10% in the assay with UACC-257, 13% in the assay on SF-295 and below 10% in the assay on SW-620.
Consider `CCn1c(S)nnc1CSc1nc2ccccc2c(=O)n1CCc1ccccc1`, for which the inhibition of growth at 10 µM in the assay on CCRF-CEM is 27%; in the assay with T47D, 27%; in the assay on 786-0 it was 19%; with HL-60(TB) it was 30%; with Malme-3M, below 10%; in the assay with Hs-578T it was below 10%. The inhibition of growth at 10 µM with HCT-116 is 35%; in the assay on NCI-H226, 35%; in the assay on MDA-MB-231 it was 18%; with NCI-H460, 31%; in the assay with SNB-19, below 10%; in the assay with SK-OV-3, below 10%. In addition, the inhibition of growth at 10 µM is below 10% in the assay on IGROV-1; 28% in the assay with BT-549; 29% in the assay with MOLT-4; 22% in the assay with HOP-62; 16% in the assay on MDA-MB-435; 12% in the assay with UACC-257. Besides, the inhibition of growth at 10 µM in the assay on SF-295 and in the assay with SW-620 was below 10% each time. Moreover, the outcome in the assay with NCI-H522 [2] was Active.
